# Measurements published in paper PMC7804942, “The amphibian peptide Yodha is virucidal for Zika and dengue viruses” (Scientific Reports, 2021).
# Where no end group is shown, it is not given here.
# How the values were obtained:
# DENV3 = settings: FFA
# Method: Dengue virus strains 1, 2, 3 and 4 were treated with wither Yodha or control OVA peptide at (A) 50 µM (B) 160 µM concentration and the % of viral focus forming units were determined. (C) IC50 measurement of Yodha in DENVs infection by FFA. […] OVA peptide was used a negative control.
# (§1) Peptides were incubated with ZIKV (100 FFU/well) for 2 h at 37 °C. This incubated mixture was used to infect Vero cells for 1.5 h at 37 °C. Cells and inoculum were overlaid with 2% methylcellulose solution (OptiMEM; Gibco) and incubated for 72 h at 37 °C. Cells were washed with PBS and fixed with a 1:1 methanol/acetone mixture for 30 min. Cells were blocked with 5% milk/PSB at room temperature for 20 min and incubated with primary antibody (anti-flavivirus mouse 4G2[10] antibody) for 2 h at 37 °C. Then, cells were incubated with secondary antibody (HRP-conjugated goat anti-mouse IgG, Cell Signaling) for 1 h at 37 °C. Cells were developed with TrueBlue Peroxidase Substrate (KPL). Plates were read on a CTL-ImmunoSpot S6 Micro analyzer.
# ZIKV = ZIKV neutralisation by mutant, enantiomer and variant peptides (strain not stated); format: cell-based, Zika virus
# Method: To further characterize Yodha peptide, we generated alanine-scanning mutants of the peptide, which removes the side chain, but maintains peptide conformation, allowing for the assessment of the significance of each amino acid within the larger structure (Fig. 4A). Each of 23 mutated peptides was tested for its (a) ability to neutralize ZIKV (Fig. 4B) and (b) toxicity against human RBC, if any (Fig. 4C).
# So next, we sought to determine how common this peptide or its analogs are in host defense peptides isolated from elsewhere in the world. […] We then determined the extent to which any of these variant peptides can neutralize ZIKV. […] We also generated a series of mutant Yodha peptides, including one which lacks the C terminal DDQERC, a short 12 peptide fragment that lacks the EEERGA from variant #12, and a S1P peptide that replace S1-P in the full-length Yodha (Fig. 5D) and tested their activity against ZIKV (Fig. 5D).
# as §1
sequence,measurement,setting,value
PMLLLFFLGTISLSLCQ [truncated Yodha variant 12],efficiency against DENV3 compared to the full length Yodha peptide,DENV3; dose escalation,very efficient
same,IC50,DENV3; read-out: IC50 for DENV3,30 µM
same,activity of truncated and S1P mutant peptides against ZIKV versus WT Yodha,ZIKV,significantly improved activity
"PMLLLFFLGTISLSLCQEEERGA [variant #12, brevinin-2KK2, naturally occurring variant of Yodha from Rana kukunoris]",increased effect against ZIKV than Yodha peptide,ZIKV,1.6 fold
"PMLLLFFLGTISLSLCQEERGA [variant 21, naturally occurring variant of Yodha isolated from the frog I. temporalis]",virucidal activity of naturally occurring variants against ZIKV,ZIKV,exhibited activity
